Laboratory results: patent US9485988B2, “Turfgrass fungicide formulation with pigment” (Suncor Energy Inc., priority 2008, dated 2016)

Assays:
Format in all cases: in vivo
tropical sod webworms = assay: Example 29: survival of tropical sod webworm larvae
Experimental: (§1) • 1) Larvae were obtained from Benzon Research Inc. • 2) 5 larvae/container and 3 containers=1 replication • 3) Treatments=1) Control • 2) 2-pack formulation at 5% dilution • 3) Cyfluthrin (insecticide), Al=0.75%, 3 fl oz/gal H2O (22 mL/L) • 4) Container=760 ml plastic bowl with lid containing moist filter paper on bottom and grass clippings • 5) St. Augustinegrass clippings dipped into respective fungicide treatment, drained to dry and put into container • 6) Hold 4 days at 25° C. and measure survival • 7) 7 replications of small larvae (2-10 mm) tested • 8) 6 replications of medium larvae (11-20 mm) tested • 9) 6 replications of large larvae (21-30 mm) tested • 10) Statistical analysis=Least Significant Difference (LSD) test Results:
Similar testing was conducted to determine the efficacy of embodiments of the 2-pack formulation to kill all sizes larvae (small, medium and large) of tropical sod webworms.

[1] = system: fall armyworms (Spodoptera frugiperda); assay: Example 29: survival of fall armyworm larvae on treated grass clippings; details: 5 larvae/container, 4 days at 25° C.
Experimental: The efficacy of an embodiment of the 2-pack formulation against different larval stages of fall armyworms (Spodoptera frugiperda) was determined under laboratory conditions. Embodiments of the invention were compared to a conventional pesticide Cyfluthrin.
as §1, with “Results: […]” for “Results:”

[2] = Synergy of the formulations when mixed with conventional chemical fungicides; details: contact fungicide

Compound | Mean survival, Large larvae (tropical sod webworms; Large sod webworm larvae) | Mean survival, Medium larvae (tropical sod webworms; Medium sod webworm larvae) | Mean survival, Small larvae (tropical sod webworms; Small sod webworm larvae) | Mean survival, Large larvae ([1]; large larvae (21-30 mm)) | Mean survival, Medium larvae ([1]; medium larvae (11-20 mm)) | Mean survival, Small larvae ([1]; small larvae (2-10 mm)) | synergistic effect when mixed with embodiments of the invention [2]
CC1(C)C(C=C(Cl)Cl)C1C(=O)OC(C#N)c1ccc(F)c(Oc2ccccc2)c1 (stereo not shown) [Cyfluthrin] | 0.3 B | 0 B | 0 B | 0 B | 0 B | 0 B | –
N#Cc1c(Cl)c(Cl)c(Cl)c(C#N)c1Cl [chlorothalonil] | – | – | – | – | – | – | synergistic effect was not observed
